Assay [1] deals with T1, recombinant human ALK5 (TGF-βR1) protein (Homo sapiens, UniProt P36897).
T1 construct: purchased Life Technologies PR9075A
T1 sequence (P36897 34-503): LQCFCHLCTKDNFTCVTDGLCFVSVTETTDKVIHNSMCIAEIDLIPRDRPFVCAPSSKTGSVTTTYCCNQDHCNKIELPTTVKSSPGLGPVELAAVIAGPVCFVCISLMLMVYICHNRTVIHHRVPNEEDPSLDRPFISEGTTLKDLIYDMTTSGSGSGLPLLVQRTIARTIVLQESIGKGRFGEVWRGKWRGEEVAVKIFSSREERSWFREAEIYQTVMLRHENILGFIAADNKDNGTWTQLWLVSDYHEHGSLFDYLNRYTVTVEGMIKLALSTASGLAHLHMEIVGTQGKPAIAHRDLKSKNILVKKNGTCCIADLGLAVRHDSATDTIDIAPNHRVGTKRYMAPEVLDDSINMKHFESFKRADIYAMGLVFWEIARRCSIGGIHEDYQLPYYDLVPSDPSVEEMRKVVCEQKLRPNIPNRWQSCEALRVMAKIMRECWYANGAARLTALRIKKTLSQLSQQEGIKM
The assay is described as follows: Biochemical ALK5 (TGF-βR1) assay to measure pKi (LANCE Ultra ULight kinase assay). As to conditions: apparent pKi, converted from pIC50 by Cheng-Prusoff. The method, boiled down: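 Enzyme was preincubated with compound for 60 min at room temperature, then ATP (added from a 125 μM 5× stock with 2 mM DTT) started a 60 min reaction at 37 °C. EDTA plus Eu-anti-phospho-Topo2α (Thr1342) antibody stopped it; TR-FRET pIC50 values were converted to pKi by Cheng-Prusoff.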
On the technique in general: In TR-FRET formats the signal depends on donor and acceptor labels being close together.

The test system of assay [2] is TGF-β-stimulated SMAD3 phosphorylation in BEAS-2B cells. Briefly: Cellular ALK5 potency assay, inhibition of TGF-β stimulated pSMAD3 formation in BEAS-2B cells. In kind it is cell-based. Particulars: Homo sapiens, pSMAD3, TGF-β 10 ng/mL, read-out: BEAS2B pIC50 (converted). A digest of the protocol: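 Human lung epithelial BEAS-2B cells were pre-treated with compound for 1 h at 37 °C, then stimulated with TGF-β (final 10 ng/mL) for 30 min before lysis. pSMAD3 was quantified by AlphaLISA and pIC50 derived from dose-dependent signal change versus TGF-β-stimulated untreated cells.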

Where only a bound is given, the exact number is not on record here.

As for `Cc1cccc(-c2nccc(Nc3ccnc(Nc4ccc(N5CCC(CNCC(C)C)CC5)cc4)n3)n2)n1` [Compound 525, N2-[4-[4-[(isobutylamino)methyl]-1-piperidyl]phenyl]-N4-[2-(6-methyl-2-pyridyl)pyrimidin-4-yl]pyrimidine-2,4-diamine], the Ki in assay [1] was 0.398 to 3.16 nM. Further, the IC50 in assay [2] was 25.1 to 158 nM.

With `Cc1cccc(-c2nccc(Nc3ccnc(Nc4ccc5c(c4)OCCO5)n3)n2)n1` [Compound 526, N2-(2,3-dihydro-1,4-benzodioxin-6-yl)-N4-[2-(6-methyl-2-pyridyl)pyrimidin-4-yl]pyrimidine-2,4-diamine], in assay [1], the Ki was 3.98 to 31.6 nM. Further, in assay [2], the IC50 is 25.1 to 158 nM.

In the case of `Cc1cccc(-c2nccc(Nc3ccnc(Nc4ccc(S(=O)(=O)N5CCN(C6CC6)CC5)cc4)n3)n2)n1` [Compound 527, N2-[4-(4-cyclopropylpiperazin-1-yl)sulfonylphenyl]-N4-[2-(6-methyl-2-pyridyl)pyrimidin-4-yl]pyrimidine-2,4-diamine], the Ki in assay [1] is 0.398 to 3.16 nM. For the same molecule, the IC50 in assay [2] was 25.1 to 158 nM.

As to `CCOC(=O)Cc1cc(Nc2ccnc(Nc3ccc(N4CCNCC4)cc3)n2)nc(-c2cccc(C)n2)n1` [Compound 529, ethyl 2-[2-(6-methyl-2-pyridyl)-6-[[2-(4-piperazin-1-ylanilino)pyrimidin-4-yl]amino]pyrimidin-4-yl]acetate], the Ki in assay [1] was 3.98 to 31.6 nM. Besides, the IC50 in assay [2] was 25.1 to 158 nM.

Regarding `Cc1cccc(-c2nccc(Nc3ccnc(Nc4ccc(N5CCNCC5)c(CC(=O)OC5CNC5)c4)n3)n2)n1` [Compound 530, azetidin-3-yl 2-[5-[[4-[[2-(6-methyl-2-pyridyl)pyrimidin-4-yl]amino]pyrimidin-2-yl]amino]-2-piperazin-1-yl-phenyl]acetate], the Ki in assay [1] was 0.0398 to 0.316 nM. For the same molecule, the IC50 in assay [2] is 200 to 1260 nM.

In the case of `Cc1cccc(-c2nccc(Nc3ccnc(Nc4cccc(NC(=O)N5CCN(C(C)C)CC5)c4)n3)n2)n1` [Compound 531, 4-isopropyl-N-[3-[[4-[[2-(6-methyl-2-pyridyl)pyrimidin-4-yl]amino]pyrimidin-2-yl]amino]phenyl]piperazine-1-carboxamide], the Ki in assay [1] was 0.0398 to 0.316 nM. For the same molecule, the IC50 in assay [2] was 25.1 to 158 nM.

In the case of `Cc1cccc(-c2nccc(Nc3ccnc(Nc4cc(C(=O)O)cs4)n3)n2)n1` [Compound 532, 5-[[4-[[2-(6-methyl-2-pyridyl)pyrimidin-4-yl]amino]pyrimidin-2-yl]amino]thiophene-3-carboxylic acid], the Ki in assay [1] is 0.398 to 3.16 nM. The IC50 in assay [2] is 200 to 1260 nM.

Consider `Cc1cccc(-c2nccc(Nc3ccnc(Nc4ccc(CN5CCN(CC(C)C)CC5)cc4)n3)n2)n1` [Compound 533, N2-[4-[(4-isobutylpiperazin-1-yl)methyl]phenyl]-N4-[2-(6-methyl-2-pyridyl)pyrimidin-4-yl]pyrimidine-2,4-diamine], for which the Ki in assay [1] is 0.0398 to 0.316 nM. For the same molecule, the IC50 in assay [2] was 25.1 to 158 nM.

`Cc1cccc(-c2nccc(Nc3ccnc(Nc4ccc(N5CCN(CCO)CC5)cc4)n3)n2)n1` [Compound 534, 2-[4-[4-[[4-[[2-(6-methyl-2-pyridyl)pyrimidin-4-yl]amino]pyrimidin-2-yl]amino]phenyl]piperazin-1-yl]ethanol]: the Ki in assay [1] was 0.0398 to 0.316 nM. Besides, the IC50 in assay [2] was 25.1 to 158 nM.

In the case of `Cc1cccc(-c2nccc(Nc3ccnc(Nc4ccc(-c5cn[nH]c5)cc4)n3)n2)n1` [Compound 535, N4-[2-(6-methyl-2-pyridyl)pyrimidin-4-yl]-N2-[4-(1H-pyrazol-4-yl)phenyl]pyrimidine-2,4-diamine], the Ki in assay [1] is 3.98 to 31.6 nM. Further, the IC50 in assay [2] was at most 20 nM.

Consider `Cc1cccc(-c2nccc(Nc3ccnc(Nc4csc(C(=O)N5CCN[C@@H](CO)C5)c4)n3)n2)n1` [Compound 536, [(3R)-3-(hydroxymethyl)piperazin-1-yl]-[4-[[4-[[2-(6-methyl-2-pyridyl)pyrimidin-4-yl]amino]pyrimidin-2-yl]amino]-2-thienyl]methanone], for which the Ki in assay [1] is 0.0398 to 0.316 nM. Also, the IC50 in assay [2] is 25.1 to 158 nM.

As to `Cc1cccc(-c2nccc(Nc3ccnc(Nc4ccc(NCC5CNC5)cc4)n3)n2)n1` [Compound 537, N2-(4-((azetidin-3-ylmethyl)amino)phenyl)-N4-(2-(6-methylpyridin-2-yl)pyrimidin-4-yl)pyrimidine-2,4-diamine], the Ki in assay [1] is 0.0398 to 0.316 nM. In assay [2], the IC50 was 25.1 to 158 nM.

`Cc1cccc(-c2nccc(Nc3ccnc(Nc4ccc(-c5cnn(C6COC6)c5)cc4)n3)n2)n1` [Compound 538, N4-(2-(6-methylpyridin-2-yl)pyrimidin-4-yl)-N2-(4-(1-(oxetan-3-yl)-1H-pyrazol-4-yl)phenyl)pyrimidine-2,4-diamine]: the Ki in assay [1] is 0.0398 to 0.316 nM. Also, in assay [2], the IC50 is 25.1 to 158 nM.

For the molecule `Cc1cccc(-c2nccc(Nc3ccnc(Nc4ccc(C5CNCCN5)cc4)n3)n2)n1` (stereo not drawn) [Compound 539, N4-[2-(6-methyl-2-pyridyl)pyrimidin-4-yl]-N2-(4-piperazin-2-ylphenyl)pyrimidine-2,4-diamine], the Ki in assay [1] was at most 0.0316 nM. Moreover, the IC50 in assay [2] is 25.1 to 158 nM.

For the molecule `Fc1cc(F)c(-c2ncc(C3CC3)c(Nc3ccnc(Nc4ccc(N5CCNCC5)cc4)n3)n2)cc1Cl` [Compound 540, N4-[2-(5-chloro-2,4-difluoro-phenyl)-5-cyclopropyl-pyrimidin-4-yl]-N2-(4-piperazin-1-ylphenyl)pyrimidine-2,4-diamine], the Ki in assay [1] is 0.0398 to 0.316 nM. For the same molecule, in assay [2], the IC50 is 1580 to 10000 nM.

As to `Cc1cccc(-c2nccc(Nc3ccnc(Nc4ccc(S(=O)(=O)N5CCN(CCO)CC5)cc4)n3)n2)n1` [Compound 541, 2-[4-[4-[[4-[[2-(6-methyl-2-pyridyl)pyrimidin-4-yl]amino]pyrimidin-2-yl]amino]phenyl]sulfonylpiperazin-1-yl]ethanol], the Ki in assay [1] was 0.0398 to 0.316 nM. In assay [2], the IC50 is 25.1 to 158 nM.

Regarding `Cc1nc(-c2nccc(Nc3ccnc(Nc4ccc(N5CCC(N6CCN(C)CC6)CC5)cc4)n3)n2)ccc1F` [Compound 542, N4-[2-(5-fluoro-6-methyl-2-pyridyl)pyrimidin-4-yl]-N2-[4-[4-(4-methylpiperazin-1-yl)-1-piperidyl]phenyl]pyrimidine-2,4-diamine], in assay [1], the Ki was 0.0398 to 0.316 nM. Also, the IC50 in assay [2] was 25.1 to 158 nM.

Take `Cc1cccc(-c2nccc(Nc3ccnc(Nc4csc(C(=O)O[C@@H]5CCNC5)c4)n3)n2)n1` [Compound 543, [(3R)-pyrrolidin-3-yl] 4-[[4-[[2-(6-methyl-2-pyridyl)pyrimidin-4-yl]amino]pyrimidin-2-yl]amino]thiophene-2-carboxylate]: the Ki in assay [1] was 0.0398 to 0.316 nM. The IC50 in assay [2] is 25.1 to 158 nM.

Regarding `Cc1cccc(-c2nccc(Nc3ccnc(Nc4csc(C(=O)O[C@H]5CCNC5)c4)n3)n2)n1` [Compound 544, [(3S)-pyrrolidin-3-yl] 4-[[4-[[2-(6-methyl-2-pyridyl)pyrimidin-4-yl]amino]pyrimidin-2-yl]amino]thiophene-2-carboxylate], the Ki in assay [1] was 0.0398 to 0.316 nM. Also, in assay [2], the IC50 was 25.1 to 158 nM.

As for `Cc1cccc(-c2nccc(Nc3ccnc(Nc4ccc(C(=O)OCC5CNC5)nc4)n3)n2)n1` [Compound 545, azetidin-3-ylmethyl 5-((4-((2-(6-methylpyridin-2-yl)pyrimidin-4-yl)amino)pyrimidin-2-yl)amino)picolinate], in assay [1], the Ki was 0.0398 to 0.316 nM. The IC50 in assay [2] is 25.1 to 158 nM.

As for `Cc1cccc(-c2nccc(Nc3ccnc(Nc4ccc(C(=O)O[C@@H]5CCNC5)nc4)n3)n2)n1` [Compound 546, [(3R)-pyrrolidin-3-yl] 5-[[4-[[2-(6-methyl-2-pyridyl)pyrimidin-4-yl]amino]pyrimidin-2-yl]amino]pyridine-2-carboxylate], in assay [1], the Ki is 0.0398 to 0.316 nM. In assay [2], the IC50 was 25.1 to 158 nM.

Consider `Cc1cccc(-c2nccc(Nc3ccnc(Nc4ccc(C(=O)O[C@H]5CCNC5)nc4)n3)n2)n1` [Compound 547, [(3S)-pyrrolidin-3-yl] 5-[[4-[[2-(6-methyl-2-pyridyl)pyrimidin-4-yl]amino]pyrimidin-2-yl]amino]pyridine-2-carboxylate], for which the Ki in assay [1] is 0.0398 to 0.316 nM. In addition, the IC50 in assay [2] is 25.1 to 158 nM.

Turning to `Cc1cccc(-c2nccc(Nc3ccnc(Nc4cncc(C(=O)OCC5CNC5)c4)n3)n2)n1` [Compound 548, azetidin-3-ylmethyl 5-[[4-[[2-(6-methyl-2-pyridyl)pyrimidin-4-yl]amino]pyrimidin-2-yl]amino]pyridine-3-carboxylate], the Ki in assay [1] is 0.398 to 3.16 nM. The IC50 in assay [2] is 25.1 to 158 nM.

As for `Cc1cccc(-c2nccc(Nc3ccnc(Nc4cncc(C(=O)O[C@@H]5CCNC5)c4)n3)n2)n1` [Compound 549, (R)-pyrrolidin-3-yl 5-((4-((2-(6-methylpyridin-2-yl)pyrimidin-4-yl)amino)pyrimidin-2-yl)amino)nicotinate], the Ki in assay [1] is 0.398 to 3.16 nM. Moreover, in assay [2], the IC50 is 25.1 to 158 nM.

Values taken from US20230399312A1, “SUBSTITUTED PYRIMIDINES AND METHODS OF USE” (THERAVANCE BIOPHARMA R&D IP, LLC, priority 2020, published 2023).
